Assay results: PubChem BioAssay (NCI)
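These data come from cells grown in 96-well plates and exposed to compound for 48 hours at five concentrations. TGI: concentration producing complete growth inhibition.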

What was measured:
Experiment in all cases: NCI tumour cell line growth inhibition, 48 h
UO-31 renal = test system: UO-31 renal
UACC-257 melanoma = test system: UACC-257 melanoma
DMS 114 small cell lung = test system: DMS 114 small cell lung
786-0 renal = test system: 786-0 renal
A498 renal = test system: A498 renal
DLD-1 colon = test system: DLD-1 colon
NCI-H460 lung = test system: NCI-H460 lung
RXF 393 renal = test system: RXF 393 renal
CCRF-CEM leukemia = test system: CCRF-CEM leukemia
NCI-H226 lung = test system: NCI-H226 lung
OVCAR-3 ovarian = test system: OVCAR-3 ovarian
HOP-62 NSCLC = test system: HOP-62 NSCLC
SK-MEL-5 melanoma = test system: SK-MEL-5 melanoma
OVCAR-4 ovarian = test system: OVCAR-4 ovarian
SNB-19 CNS = test system: SNB-19 CNS
NCI-H522 lung = test system: NCI-H522 lung
M14 melanoma = test system: M14 melanoma
SK-OV-3 ovarian = test system: SK-OV-3 ovarian
SN12C renal = test system: SN12C renal
SF-539 CNS = test system: SF-539 CNS
HCT-116 colon = test system: HCT-116 colon
SF-295 CNS = test system: SF-295 CNS
IGROV1 ovarian = test system: IGROV1 ovarian
MALME-3M melanoma = test system: MALME-3M melanoma
LOX IMVI melanoma = test system: LOX IMVI melanoma
SF-268 CNS = test system: SF-268 CNS
U251 CNS = test system: U251 CNS
CAKI-1 renal = test system: CAKI-1 renal
KM12 colon = test system: KM12 colon
EKVX NSCLC = test system: EKVX NSCLC
RPMI-8226 leukemia = test system: RPMI-8226 leukemia
HCC-2998 colon = test system: HCC-2998 colon
MOLT-4 leukemia = test system: MOLT-4 leukemia
TK-10 renal = test system: TK-10 renal
M19-MEL melanoma = test system: M19-MEL melanoma
A549 NSCLC = test system: A549 NSCLC
OVCAR-5 ovarian = test system: OVCAR-5 ovarian
UACC-62 melanoma = test system: UACC-62 melanoma
HOP-18 NSCLC = test system: HOP-18 NSCLC
OVCAR-8 ovarian = test system: OVCAR-8 ovarian
SW-620 colon = test system: SW-620 colon
COLO 205 colon = test system: COLO 205 colon
HT29 colon = test system: HT29 colon
DMS 273 small cell lung = test system: DMS 273 small cell lung
ACHN renal = test system: ACHN renal
SNB-75 CNS = test system: SNB-75 CNS
HCT-15 colon = test system: HCT-15 colon
NCI-H23 lung = test system: NCI-H23 lung
SNB-78 CNS = test system: SNB-78 CNS
SR leukemia = test system: SR leukemia
LXFL 529 NSCLC = test system: LXFL 529 NSCLC
K-562 leukemia = test system: K-562 leukemia
XF 498 CNS = test system: XF 498 CNS
HOP-92 NSCLC = test system: HOP-92 NSCLC
SK-MEL-28 melanoma = test system: SK-MEL-28 melanoma
HL-60(TB) leukemia = test system: HL-60(TB) leukemia
SK-MEL-2 melanoma = test system: SK-MEL-2 melanoma
KM20L2 colon = test system: KM20L2 colon

For Nn1c(CCCl)nc2c(Br)cc(Br)cc2c1=O, the TGI (UO-31 renal) was greater than 75.6 µM, the TGI (UACC-257 melanoma) was greater than 100 µM and the TGI (DMS 114 small cell lung) was 50.5 µM. The TGI (786-0 renal) was 81 µM, the TGI (A498 renal) was greater than 56.9 µM and the TGI (DLD-1 colon) was greater than 79.4 µM. The TGI (NCI-H460 lung) was 65.1 µM, the TGI (RXF 393 renal) was greater than 100 µM and the TGI (CCRF-CEM leukemia) was 20.3 µM. The TGI (NCI-H226 lung) was greater than 75.1 µM, the TGI (OVCAR-3 ovarian) was 39.8 µM and the TGI (HOP-62 NSCLC) was 71.8 µM. The TGI (SK-MEL-5 melanoma) was 37.8 µM, the TGI (OVCAR-4 ovarian) was 69.3 µM and the TGI (SNB-19 CNS) was greater than 100 µM. For the same compound, the TGI (NCI-H522 lung) was 38.5 µM, the TGI (M14 melanoma) was greater than 70 µM and the TGI (SK-OV-3 ovarian) was greater than 94.1 µM. It also gave a TGI (SN12C renal) greater than 84.2 µM, a TGI (SF-539 CNS) greater than 91.4 µM and a TGI (HCT-116 colon) of 53 µM. It also gave a TGI (SF-295 CNS) greater than 100 µM, a TGI (IGROV1 ovarian) of 60.3 µM and a TGI (MALME-3M melanoma) greater than 100 µM. The TGI (LOX IMVI melanoma) was 78.6 µM, the TGI (SF-268 CNS) was greater than 100 µM and the TGI (U251 CNS) was greater than 58 µM. It also gave a TGI (CAKI-1 renal) greater than 93.2 µM, a TGI (KM12 colon) of 38.1 µM and a TGI (EKVX NSCLC) greater than 93.7 µM. It also gave a TGI (RPMI-8226 leukemia) of 58.5 µM, a TGI (HCC-2998 colon) greater than 100 µM and a TGI (MOLT-4 leukemia) of 61.3 µM. The TGI (TK-10 renal) was greater than 100 µM, the TGI (M19-MEL melanoma) was greater than 82 µM and the TGI (A549 NSCLC) was greater than 100 µM. The TGI (OVCAR-5 ovarian) was greater than 71.5 µM, the TGI (UACC-62 melanoma) was greater than 83.8 µM and the TGI (HOP-18 NSCLC) was greater than 100 µM. The TGI (OVCAR-8 ovarian) was greater than 100 µM, the TGI (SW-620 colon) was greater than 55 µM and the TGI (COLO 205 colon) was 54.1 µM. For the same compound, the TGI (HT29 colon) was greater than 100 µM, the TGI (DMS 273 small cell lung) was greater than 100 µM and the TGI (ACHN renal) was greater than 74.7 µM. For the same compound, the TGI (SNB-75 CNS) was 91.5 µM, the TGI (HCT-15 colon) was 55.1 µM and the TGI (NCI-H23 lung) was 62.8 µM. It also gave a TGI (SNB-78 CNS) greater than 100 µM, a TGI (SR leukemia) of 72 µM and a TGI (LXFL 529 NSCLC) of 69.3 µM. For the same compound, the TGI (K-562 leukemia) was greater than 30.6 µM, the TGI (XF 498 CNS) was 56.1 µM and the TGI (HOP-92 NSCLC) was greater than 90.8 µM. The TGI (SK-MEL-28 melanoma) was greater than 100 µM, the TGI (HL-60(TB) leukemia) was 6.5 µM and the TGI (SK-MEL-2 melanoma) was greater than 90.9 µM. The TGI (KM20L2 colon) was 65.4 µM.
Work on O=c1c(O)c(-c2ccc(O)c(O)c2)oc2cc(O)ccc12 yielded a TGI (UO-31 renal) of 23.4 µM, a TGI (UACC-257 melanoma) greater than 67.7 µM and a TGI (DMS 114 small cell lung) of 55.1 µM. For the same compound, the TGI (786-0 renal) was greater than 91.5 µM, the TGI (A498 renal) was 62.3 µM and the TGI (DLD-1 colon) was greater than 100 µM. For the same compound, the TGI (NCI-H460 lung) was 29.2 µM, the TGI (RXF 393 renal) was 47 µM and the TGI (CCRF-CEM leukemia) was greater than 71.1 µM. It also gave a TGI (NCI-H226 lung) of 39.5 µM, a TGI (OVCAR-3 ovarian) of 62 µM and a TGI (HOP-62 NSCLC) greater than 100 µM. For the same compound, the TGI (SK-MEL-5 melanoma) was 27.4 µM, the TGI (OVCAR-4 ovarian) was greater than 100 µM and the TGI (SNB-19 CNS) was greater than 100 µM. For the same compound, the TGI (NCI-H522 lung) was 45.3 µM, the TGI (M14 melanoma) was 44 µM and the TGI (SK-OV-3 ovarian) was 59.9 µM. It also gave a TGI (SN12C renal) of 56.4 µM, a TGI (SF-539 CNS) of 26.7 µM and a TGI (HCT-116 colon) of 26.2 µM. The TGI (SF-295 CNS) was 54.4 µM, the TGI (IGROV1 ovarian) was greater than 62.8 µM and the TGI (MALME-3M melanoma) was greater than 77 µM. For the same compound, the TGI (LOX IMVI melanoma) was 32.4 µM, the TGI (SF-268 CNS) was greater than 74.1 µM and the TGI (U251 CNS) was 35.6 µM. It also gave a TGI (KM12 colon) of 31 µM, a TGI (EKVX NSCLC) of 65.8 µM and a TGI (RPMI-8226 leukemia) greater than 79.9 µM. For the same compound, the TGI (HCC-2998 colon) was 41.9 µM, the TGI (MOLT-4 leukemia) was greater than 72.5 µM and the TGI (TK-10 renal) was greater than 88.8 µM. The TGI (M19-MEL melanoma) was greater than 88.1 µM, the TGI (A549 NSCLC) was greater than 100 µM and the TGI (OVCAR-5 ovarian) was 42.1 µM. It also gave a TGI (UACC-62 melanoma) of 39.5 µM, a TGI (HOP-18 NSCLC) of 52.2 µM and a TGI (OVCAR-8 ovarian) of 56.3 µM. The TGI (SW-620 colon) was 60.1 µM, the TGI (COLO 205 colon) was greater than 100 µM and the TGI (HT29 colon) was 98.8 µM. It also gave a TGI (DMS 273 small cell lung) of 28.2 µM, a TGI (ACHN renal) greater than 91 µM and a TGI (SNB-75 CNS) of 18.2 µM. For the same compound, the TGI (HCT-15 colon) was 98.4 µM, the TGI (NCI-H23 lung) was 31.8 µM and the TGI (SNB-78 CNS) was 67.2 µM. It also gave a TGI (SR leukemia) of 99.8 µM, a TGI (LXFL 529 NSCLC) greater than 87.7 µM and a TGI (K-562 leukemia) greater than 100 µM. It also gave a TGI (XF 498 CNS) of 44.1 µM, a TGI (HOP-92 NSCLC) of 71.8 µM and a TGI (SK-MEL-28 melanoma) greater than 58.4 µM. It also gave a TGI (HL-60(TB) leukemia) greater than 84.1 µM, a TGI (SK-MEL-2 melanoma) of 23.2 µM and a TGI (KM20L2 colon) of 73.2 µM.
